# According to PubChem BioAssay AID1996:
# Conditions: buffer; pH 7.4; 200.0 µM
row,SMILES,solubility kinetic
1,CC(NC(=O)Nc1ccccc1Cl)c1ccc2c(c1)OCO2 (stereo unspecified),< 0.3 µg/mL
2,Cc1ccc2c(NC(=O)c3ccco3)cccc2n1,37.2 µg/mL
3,COc1cccc(C(=O)NCCNC(=O)c2cnccn2)c1,30.9 µg/mL
4,CCOc1ccccc1Nc1nc(N)nc(CN2CCCCC2C)n1 (stereo unspecified),> 51.4 µg/mL
5,COc1ccc(C)cc1NC(=O)CSCc1ccccc1C,8.6 µg/mL
6,C=C(C)CN1CCN(c2ccc(N3C(=O)CCCC3=O)cc2[N+](=O)[O-])CC1,54 µg/mL
7,O=C(CNC(=O)c1ccco1)Nc1ccc(Cl)cc1,24.1 µg/mL
8,CC(C)(C)c1ccc(C2(C)NC(=O)NC2=O)cc1 (stereo unspecified),35.2 µg/mL
9,CCOc1ccc(NC(=S)N(CCc2ccncc2)C(C)C)cc1,48.8 µg/mL
10,O=C(Nc1ncccc1O)c1ccc2c(c1)OCO2,> 38.7 µg/mL
11,CNC(=O)C(=O)Nc1cc2c3c(c1)CCC(=O)N3CCC2,19 µg/mL
12,O=C(O)Cn1cc(CN2CCOCC2)c2ccccc21,30 µg/mL
13,CC(NC(=O)c1ccc([N+](=O)[O-])o1)C12CC3CC(CC(C3)C1)C2 (stereo unspecified),29.5 µg/mL
14,NC(=O)C1CC(=O)N(c2ccc(OCc3ccc([N+](=O)[O-])cc3)cc2)C1 (stereo unspecified),20.4 µg/mL
15,COC(=O)c1cc(NC(=O)c2cccnc2)cc(C(=O)OC)c1,5.6 µg/mL
16,O=C(/C=C/c1ccc(Cl)c([N+](=O)[O-])c1)c1cccnc1,2.2 µg/mL
17,COc1cccc(NC(=O)C(=O)NCCc2ccc(F)cc2)c1,< 0.3 µg/mL
18,N#Cc1ccccc1OCC(=O)Nc1ccccc1C(=O)NC1CC1,48.3 µg/mL
19,Cc1ncc(CN2CCCC(C(=O)c3cccc(Cl)c3)C2)s1 (stereo unspecified),43.2 µg/mL
20,NC(=O)C1CCCNC1 (stereo unspecified),> 19.2 µg/mL
21,CC(C(=O)OCC(=O)N1CCCCC1)N1C(=O)c2ccccc2C1=O (stereo unspecified),> 51.7 µg/mL
22,C=CCn1c(O)c(C(C)=Nc2cccc(C(F)(F)F)c2)c(=O)[nH]c1=O,4 µg/mL
23,O=c1c2ccccc2nc(/C=C/c2ccc(O)cc2)n1-c1ccccc1O,5.2 µg/mL

row,SMILES,solubility kinetic
1,O=C(NCc1ccccc1F)c1cc(=O)[nH]c2ccccc12,4.9 µg/mL
2,CN(C)C(=O)c1coc2nc3ccccc3nc12,4 µg/mL
3,O=C(NC(=S)Nc1ccccc1Br)c1ccco1,3.1 µg/mL
4,CCOC(=O)Cc1csc(NC(=O)CC(C)(C)CC(=O)O)n1,> 49.3 µg/mL
5,COc1cc(/C=C/C(=O)Nc2ccc(OC)c(S(=O)(=O)N3CCOCC3)c2)ccc1OC(F)F,2.6 µg/mL
6,COc1ccccc1C(=O)NCCN1CCN(c2ccccc2)CC1.Cl,52.7 µg/mL
7,COc1ccccc1CCC(=O)Oc1ccccc1C#N,16.6 µg/mL
8,COc1ccc(C(=O)OCC(=O)c2ccc3[nH]c(=O)[nH]c3c2)c(OC)c1OC,20.3 µg/mL
9,Cc1ccc(C)c(S(=O)(=O)/N=C(/Nc2ccccc2)c2ccccc2)c1,17.2 µg/mL
10,CCOC(=O)c1sc(Nc2ccc(F)cc2)nc1C,< 0.3 µg/mL
11,Cc1ccc2[nH]c(=O)c(CN(C(=O)c3cccc([N+](=O)[O-])c3)C(C)C)cc2c1,2.6 µg/mL
12,CCN(c1cccc2ccccc12)S(=O)(=O)c1ccc(Cl)nc1,7.9 µg/mL
13,CSc1ccc(Cl)c(C(=O)Nc2ccc(C)cn2)c1,4.8 µg/mL
14,CCNC(=S)N1CCN(S(=O)(=O)c2ccc(Cl)s2)CC1,31.4 µg/mL
15,NS(=O)(=O)c1ccc(CCNC(=O)CN2CCCCCC2)cc1,> 50.9 µg/mL
16,Cc1ccc(OCC(=O)Nc2ccc3c(c2)CCC3)c([N+](=O)[O-])n1,2.1 µg/mL
17,O=C(CN1C(=O)c2ccccc2S1(=O)=O)N1CCCCC1,> 46.3 µg/mL
18,O=C(Nc1ccc(N2CCCCC2)cc1)c1ccc([N+](=O)[O-])o1,6.9 µg/mL
19,Cn1ccnc1SCc1cccc([N+](=O)[O-])c1,> 37.4 µg/mL
20,Cc1onc(-c2ccccc2Cl)c1C(=O)Nc1cccc(S(=O)(=O)N2CCOCC2)c1,2 µg/mL
21,O=Cc1sc(N2CCOCC2)nc1-c1ccccc1,4.5 µg/mL
22,O=C(Nc1ccon1)Nc1ccc(F)cc1F,> 35.9 µg/mL
23,Cl.N#C/C=C/N1CCN(Cc2ccc3c(c2)OCO3)CC1,> 46.2 µg/mL
